One data set deals with Gloeophyllum trabeum. Kind of data set: Soil block test (AWPA E10-10), decay resistance of treated wood blocks. Particulars: 12 weeks at 28° C., mean of 6 blocks (SD). The data set is classed as cell-based. As for the experimental part: Soil Block Test. The soil block test (AWPA, 2010) is a relatively rapid laboratory method for assessing the decay resistance of wood-based materials under conditions that favor rapid fungal attack of wood. Soil block tests were conducted upon blocks treated with compounds and compositions described herein. Leachates from the blocks were collected prior to fungal exposure and analyzed.
Ponderosa pine (Pinus ponderosa L) sapwood blocks (19 mm cubes) were oven dried (60° C.) and weighed. The blocks were then randomly allocated, in groups of 12, to the various treatment groups. Treatment solutions containing actives (e.g., the compounds and compositions described herein) were supplied as 10% active ingredient concentrates. These solutions were then diluted with toluene to produce treatment solutions containing 0.1, 0.5, 1.0 and 3.0% active ingredient solutions. The blocks from a given group were placed in a container and covered with an excess of a given treatment solution. This container was placed in a desiccator. A vacuum was drawn over the vessel and then released. The blocks were removed from the treatment solution and blotted to remove excess solution before being weighed. The difference between the original dry weight and the wet weight was used to calculated net solution uptake. The blocks were stored wet for 3 days at 20-23° C. to allow any fixation reactions to proceed before being oven dried at 60° C. and weighed. The blocks were then conditioned to constant weight at 23° C. and 65% relative humidity prior to further testing.
(§1) Six blocks from each treatment group were subjected to a 14-day leaching procedure as described AWPA Standard E11-10 from the American Wood Preservers' Association's (AWPA) “Standard method of determining the leachability of wood preservatives” in the AWPA Book of Standards, Birmingham, Ala., 2010. The blocks were immersed in an excess of water, and subjected to a short vacuum. The water was then changed after 6, 24, and 48 hours of immersion and at 48 hour intervals over a total of 14 days. An aliquot of the leachate was retained at each time point for later analysis. The leached blocks were then reconditioned to constant weight at 23° C. and 65% relative humidity. Leachate collected at each time point was analyzed for boron using the azomethine H method as described in AWPA Standard A2-10 Method 16. All of the blocks were briefly soaked with water prior to being placed in plastic bags and sterilized by exposure to 2.5 mrad of ionizing radiation from a cobalt 60 source.
Decay chambers were prepared by half filling 454 ml French squares with moisture forest loam and placing a western hemlock feeder strip on the soil surface as described in AWPA Standard E10-10 “Standard method of testing wood preservatives by laboratory soil-block cultures.” The bottles were then loosely capped and autoclaved for 45 minutes at 121° C.
After cooling, the bottles were inoculated with 2 to 3 mm diameter malt agar disks cut from the actively growing edges of cultures of the test fungus, Gloeophyllum trabeum (Pers. ex Fr.) Murr. (Isolate: Madison 617). This fungus causes a brown rot of wood and tends to have some tolerance to boron compounds. The agar plugs were placed on the edges of the wood feeder strips, and the jars were loosely capped (to allow air exchange), and incubated until the feeder strip was thoroughly covered with fungal mycelium. The sterile test blocks were then placed on the surfaces of the feeder strips, the bottles were loosely capped and incubated at 28° C. for 12 weeks.
At the end of the incubation period, the blocks were removed, scraped clean of adhering mycelium and weighed to determine wet weight. The blocks were then oven dried (60° C.) and weighed. Differences between initial and final oven-dry weight were used as a measure of the decay resistance of each material.

Data set [1] is described as follows: 14-day leaching procedure (AWPA E11-10), boron in leachate by azomethine H method. The data set is classed as physicochemical. Particulars: 14-day water leaching of treated blocks. As for the experimental part: as §1

The text below walks through data of patent publication US20160037780A1, “BORON CONTAINING COMPOUNDS AND USES THEREOF” (EMPIRE TECHNOLOGY DEVELOPMENT LLC, priority 2013, published 2016).

Borate: the “Average Wood Weight Loss” value was 50.8 (4.2) % in the data set with Gloeophyllum trabeum (0.1% B, Leaching + (first line of treatment)); 53.8 (11.5) % in the data set with Gloeophyllum trabeum (0.1% B, second line of treatment, Leaching +); 46.5 (3.3) % with Gloeophyllum trabeum (0.5% B, Leaching + (first line of treatment)); 46.3 (2.4) % with Gloeophyllum trabeum (0.5% B, second line of treatment, Leaching +); 53.6 (4.3) % in the data set with Gloeophyllum trabeum (1.0% B, Leaching + (first line of treatment)); 48.3 (8.7) % in the data set on Gloeophyllum trabeum (1.0% B, second line of treatment, Leaching +). For the same substance, the “Average Wood Weight Loss” value in the data set with Gloeophyllum trabeum (3.0% B, Leaching + (first line of treatment)) is given as 51.8 (8.3) %; in the data set with Gloeophyllum trabeum (3.0% B, second line of treatment, Leaching printed + (probably non-leached)), 27.3 (6.9) %. Also, the “Boron concentrations in leachates (rank among formulations)” value in data set [1] is reported as “highest”.
